{"source": "paper PMC12742849", "about": "(Protein & Cell, 2025)", "molecular_target": "RibD-enolase complex (RibD activity) (Francisella tularensis, UniProt A0Q460)", "conditions": "substrate generated in situ from GTP by E. coli RibA; with and without PEP", "data": [{"compound": "Nc1nc(N[C@@H]2O[C@H](COP(=O)(O)O)[C@@H](O)[C@H]2O)c(N)c(=O)[nH]1", "note": "[2,5-diamino-6-ribosyl-amino-4(3H) pyrimidinedione 5′-phosphate]", "values": [{"measurement": "fluorescence of the RibD reaction product (ex 408 nm, em 485 nm)", "result": "Results showed similar activity for both, with PEP having the same effect on each"}]}]}
